Assay results as given in ChEMBL document CHEMBL3885861, “Open TG-GATES”.

Species on record: Rattus norvegicus
Experiment: Open TG-GATES - Regimen: Single
Type: toxicity, organism-based, Sprague-Dawley
Design: regimen Single, gender Male, age 6 weeks
Conditions: in vivo, po, route gavage; for APTT / Bas / Eos / Fbg / Hb / Ht / Lym / MCH / MCHC / MCV / Mono / Neu / PT / Plat / Ret / WBC: tissue Blood; for KIDNEY_L / KIDNEY_R / KIDNEY_TOTAL: tissue Kidney; for LIVER: tissue Liver; for ALP / ALT / AST / BUN / CRE / Ca / DBIL / GLC / IP / K / LDH / Na / PL / RALB / TBIL / TC / TG / TP / gamma-GTP: tissue Plasma

Work on `CN(C)CCCN1c2ccccc2CCc2ccc(Cl)cc21` [CLOMIPRAMINE] yielded an APTT (10 mg/kg, 3 h, dose level Low) of 17.9 s, a Bas (10 mg/kg, 3 h, dose level Low) of 0.4% and an Eos (10 mg/kg, 3 h, dose level Low) of 1%. For the same compound, the Fbg (10 mg/kg, 3 h, dose level Low) was 240 mg/dL, the Hb (10 mg/kg, 3 h, dose level Low) was 14 g/dL and the Ht (10 mg/kg, 3 h, dose level Low) was 43.3%. For the same compound, the Lym (10 mg/kg, 3 h, dose level Low) was 81%, the MCH (10 mg/kg, 3 h, dose level Low) was 20.7 pg and the MCHC (10 mg/kg, 3 h, dose level Low) was 32.4%. It also gave an MCV (10 mg/kg, 3 h, dose level Low) of 63.9 fL, a Mono (10 mg/kg, 3 h, dose level Low) of 3.4% and a Neu (10 mg/kg, 3 h, dose level Low) of 13.8%. It also gave a PT (10 mg/kg, 3 h, dose level Low) of 13.5 s, a Plat (10 mg/kg, 3 h, dose level Low) of 129 x10_4/uL and a Ret (10 mg/kg, 3 h, dose level Low) of 7.8%. For the same compound, the WBC (10 mg/kg, 3 h, dose level Low) was 74.4 x10_2/uL, the KIDNEY_L (10 mg/kg, 3 h, dose level Low) was 1 g and the KIDNEY_R (10 mg/kg, 3 h, dose level Low) was 1 g. It also gave a KIDNEY_TOTAL (10 mg/kg, 3 h, dose level Low) of 1.9 g, an LIVER (10 mg/kg, 3 h, dose level Low) of 10 g and an ALP (10 mg/kg, 3 h, dose level Low) of 1810.4 IU/L. It also gave an ALT (10 mg/kg, 3 h, dose level Low) of 41.2 IU/L, an AST (10 mg/kg, 3 h, dose level Low) of 75.8 IU/L and a BUN (10 mg/kg, 3 h, dose level Low) of 9.8 mg/dL. It also gave a CRE (10 mg/kg, 3 h, dose level Low) of 0.2 mg/dL, a Ca (10 mg/kg, 3 h, dose level Low) of 10.7 mg/dL and a DBIL (10 mg/kg, 3 h, dose level Low) of 0.01 mg/dL. For the same compound, the GLC (10 mg/kg, 3 h, dose level Low) was 189 mg/dL, the IP (10 mg/kg, 3 h, dose level Low) was 9 mg/dL and the K (10 mg/kg, 3 h, dose level Low) was 4.3 meq/L. The LDH (10 mg/kg, 3 h, dose level Low) was 123 IU/L, the Na (10 mg/kg, 3 h, dose level Low) was 140.6 meq/L and the PL (10 mg/kg, 3 h, dose level Low) was 148.6 mg/dL. It also gave an RALB (10 mg/kg, 3 h, dose level Low) of 2.5 g/dL, a TBIL (10 mg/kg, 3 h, dose level Low) of 0.074 mg/dL and a TC (10 mg/kg, 3 h, dose level Low) of 76.2 mg/dL. For the same compound, the TG (10 mg/kg, 3 h, dose level Low) was 78 mg/dL, the TP (10 mg/kg, 3 h, dose level Low) was 5.2 g/dL and the gamma-GTP (10 mg/kg, 3 h, dose level Low) was 1.2 IU/L. The TERMINAL_BW (10 mg/kg, 6 h, dose level Low) was 215.1 g, the APTT (10 mg/kg, 6 h, dose level Low) was 17 s and the Bas (10 mg/kg, 6 h, dose level Low) was 0%. It also gave an Eos (10 mg/kg, 6 h, dose level Low) of 0.4%, a Fbg (10 mg/kg, 6 h, dose level Low) of 254.8 mg/dL and a Hb (10 mg/kg, 6 h, dose level Low) of 14 g/dL. It also gave a Ht (10 mg/kg, 6 h, dose level Low) of 43.7%, a Lym (10 mg/kg, 6 h, dose level Low) of 79.6% and an MCH (10 mg/kg, 6 h, dose level Low) of 21 pg. It also gave an MCHC (10 mg/kg, 6 h, dose level Low) of 32.1%, an MCV (10 mg/kg, 6 h, dose level Low) of 65.5 fL and a Mono (10 mg/kg, 6 h, dose level Low) of 3%. It also gave a Neu (10 mg/kg, 6 h, dose level Low) of 15.6%, a PT (10 mg/kg, 6 h, dose level Low) of 13.6 s and a Plat (10 mg/kg, 6 h, dose level Low) of 119.7 x10_4/uL. The Ret (10 mg/kg, 6 h, dose level Low) was 7.9%, the WBC (10 mg/kg, 6 h, dose level Low) was 81.1 x10_2/uL and the KIDNEY_L (10 mg/kg, 6 h, dose level Low) was 1 g. For the same compound, the KIDNEY_R (10 mg/kg, 6 h, dose level Low) was 1 g, the KIDNEY_TOTAL (10 mg/kg, 6 h, dose level Low) was 2 g and the LIVER (10 mg/kg, 6 h, dose level Low) was 9.3 g. The ALP (10 mg/kg, 6 h, dose level Low) was 1661 IU/L, the ALT (10 mg/kg, 6 h, dose level Low) was 39.4 IU/L and the AST (10 mg/kg, 6 h, dose level Low) was 78.4 IU/L. The BUN (10 mg/kg, 6 h, dose level Low) was 9.4 mg/dL, the CRE (10 mg/kg, 6 h, dose level Low) was 0.2 mg/dL and the Ca (10 mg/kg, 6 h, dose level Low) was 10.8 mg/dL. The DBIL (10 mg/kg, 6 h, dose level Low) was 0.01 mg/dL, the GLC (10 mg/kg, 6 h, dose level Low) was 189.8 mg/dL and the IP (10 mg/kg, 6 h, dose level Low) was 9.4 mg/dL. For the same compound, the K (10 mg/kg, 6 h, dose level Low) was 4.2 meq/L, the LDH (10 mg/kg, 6 h, dose level Low) was 93 IU/L and the Na (10 mg/kg, 6 h, dose level Low) was 140.8 meq/L. For the same compound, the PL (10 mg/kg, 6 h, dose level Low) was 149 mg/dL, the RALB (10 mg/kg, 6 h, dose level Low) was 2.5 g/dL and the TBIL (10 mg/kg, 6 h, dose level Low) was 0.072 mg/dL. For the same compound, the TC (10 mg/kg, 6 h, dose level Low) was 83.4 mg/dL, the TG (10 mg/kg, 6 h, dose level Low) was 52.2 mg/dL and the TP (10 mg/kg, 6 h, dose level Low) was 5.3 g/dL. For the same compound, the gamma-GTP (10 mg/kg, 6 h, dose level Low) was 1.4 IU/L, the TERMINAL_BW (10 mg/kg, 9 h, dose level Low) was 213 g and the APTT (10 mg/kg, 9 h, dose level Low) was 15.9 s. For the same compound, the Bas (10 mg/kg, 9 h, dose level Low) was 0%, the Eos (10 mg/kg, 9 h, dose level Low) was 0.6% and the Fbg (10 mg/kg, 9 h, dose level Low) was 267.6 mg/dL. For the same compound, the Hb (10 mg/kg, 9 h, dose level Low) was 13.5 g/dL, the Ht (10 mg/kg, 9 h, dose level Low) was 41.8% and the Lym (10 mg/kg, 9 h, dose level Low) was 78.8%. It also gave an MCH (10 mg/kg, 9 h, dose level Low) of 20.9 pg, an MCHC (10 mg/kg, 9 h, dose level Low) of 32.2% and an MCV (10 mg/kg, 9 h, dose level Low) of 64.8 fL. It also gave a Mono (10 mg/kg, 9 h, dose level Low) of 2.2%, a Neu (10 mg/kg, 9 h, dose level Low) of 17.4% and a PT (10 mg/kg, 9 h, dose level Low) of 14.1 s. For the same compound, the Plat (10 mg/kg, 9 h, dose level Low) was 130.4 x10_4/uL, the Ret (10 mg/kg, 9 h, dose level Low) was 8.4% and the WBC (10 mg/kg, 9 h, dose level Low) was 80 x10_2/uL. It also gave a KIDNEY_L (10 mg/kg, 9 h, dose level Low) of 1 g, a KIDNEY_R (10 mg/kg, 9 h, dose level Low) of 0.9 g and a KIDNEY_TOTAL (10 mg/kg, 9 h, dose level Low) of 1.9 g. It also gave an LIVER (10 mg/kg, 9 h, dose level Low) of 9 g, an ALP (10 mg/kg, 9 h, dose level Low) of 1512 IU/L and an ALT (10 mg/kg, 9 h, dose level Low) of 35.8 IU/L. It also gave an AST (10 mg/kg, 9 h, dose level Low) of 67.8 IU/L, a BUN (10 mg/kg, 9 h, dose level Low) of 10.4 mg/dL and a CRE (10 mg/kg, 9 h, dose level Low) of 0.2 mg/dL. It also gave a Ca (10 mg/kg, 9 h, dose level Low) of 10.7 mg/dL, a DBIL (10 mg/kg, 9 h, dose level Low) of 0.01 mg/dL and a GLC (10 mg/kg, 9 h, dose level Low) of 187.8 mg/dL. It also gave an IP (10 mg/kg, 9 h, dose level Low) of 10.2 mg/dL, a K (10 mg/kg, 9 h, dose level Low) of 4 meq/L and an LDH (10 mg/kg, 9 h, dose level Low) of 84.2 IU/L. For the same compound, the Na (10 mg/kg, 9 h, dose level Low) was 140.2 meq/L, the PL (10 mg/kg, 9 h, dose level Low) was 138.2 mg/dL and the RALB (10 mg/kg, 9 h, dose level Low) was 2.5 g/dL. The TBIL (10 mg/kg, 9 h, dose level Low) was 0.064 mg/dL, the TC (10 mg/kg, 9 h, dose level Low) was 75.2 mg/dL and the TG (10 mg/kg, 9 h, dose level Low) was 74 mg/dL. For the same compound, the TP (10 mg/kg, 9 h, dose level Low) was 5.3 g/dL, the gamma-GTP (10 mg/kg, 9 h, dose level Low) was 1.4 IU/L and the TERMINAL_BW (10 mg/kg, 24 h, dose level Low) was 228.6 g. It also gave an APTT (10 mg/kg, 24 h, dose level Low) of 17.7 s, a Bas (10 mg/kg, 24 h, dose level Low) of 0% and an Eos (10 mg/kg, 24 h, dose level Low) of 1%. It also gave a Fbg (10 mg/kg, 24 h, dose level Low) of 249 mg/dL, a Hb (10 mg/kg, 24 h, dose level Low) of 13.6 g/dL and a Ht (10 mg/kg, 24 h, dose level Low) of 42.5%. The Lym (10 mg/kg, 24 h, dose level Low) was 77%, the MCH (10 mg/kg, 24 h, dose level Low) was 20.8 pg and the MCHC (10 mg/kg, 24 h, dose level Low) was 32.1%. The MCV (10 mg/kg, 24 h, dose level Low) was 65 fL, the Mono (10 mg/kg, 24 h, dose level Low) was 3% and the Neu (10 mg/kg, 24 h, dose level Low) was 17.6%. The PT (10 mg/kg, 24 h, dose level Low) was 13.7 s, the Plat (10 mg/kg, 24 h, dose level Low) was 124 x10_4/uL and the Ret (10 mg/kg, 24 h, dose level Low) was 7.7%. It also gave a WBC (10 mg/kg, 24 h, dose level Low) of 85.9 x10_2/uL, a KIDNEY_L (10 mg/kg, 24 h, dose level Low) of 1.1 g and a KIDNEY_R (10 mg/kg, 24 h, dose level Low) of 1 g. The KIDNEY_TOTAL (10 mg/kg, 24 h, dose level Low) was 2.1 g, the ALP (10 mg/kg, 24 h, dose level Low) was 1661.4 IU/L and the ALT (10 mg/kg, 24 h, dose level Low) was 42.6 IU/L. It also gave an AST (10 mg/kg, 24 h, dose level Low) of 74.4 IU/L, a BUN (10 mg/kg, 24 h, dose level Low) of 13 mg/dL and a CRE (10 mg/kg, 24 h, dose level Low) of 0.2 mg/dL. For the same compound, the Ca (10 mg/kg, 24 h, dose level Low) was 10.8 mg/dL, the DBIL (10 mg/kg, 24 h, dose level Low) was 0.012 mg/dL and the GLC (10 mg/kg, 24 h, dose level Low) was 179.8 mg/dL. It also gave an IP (10 mg/kg, 24 h, dose level Low) of 8.1 mg/dL, a K (10 mg/kg, 24 h, dose level Low) of 4 meq/L and an LDH (10 mg/kg, 24 h, dose level Low) of 88 IU/L. It also gave a Na (10 mg/kg, 24 h, dose level Low) of 141.8 meq/L, a PL (10 mg/kg, 24 h, dose level Low) of 144.4 mg/dL and an RALB (10 mg/kg, 24 h, dose level Low) of 2.6 g/dL. For the same compound, the TBIL (10 mg/kg, 24 h, dose level Low) was 0.062 mg/dL, the TC (10 mg/kg, 24 h, dose level Low) was 73.8 mg/dL and the TG (10 mg/kg, 24 h, dose level Low) was 91.6 mg/dL. The TP (10 mg/kg, 24 h, dose level Low) was 5.4 g/dL, the gamma-GTP (10 mg/kg, 24 h, dose level Low) was 1 IU/L and the TERMINAL_BW (30 mg/kg, 3 h, dose level Middle) was 217.9 g.
